We go through 41 compounds from paper PMC7111419 (European Journal of Medicinal Chemistry, 2019).

Like-named read-outs stand apart in the source and are kept apart here. Some results are limits rather than exact numbers.

Series [1] relates to βGLU. The settings on record: cited from earlier work.
The next series relates to male Fischer rats. The settings on record: cited from earlier work; for reduction of aberrant crypt foci formation: 5 weeks, vs azoxymethane-controls.
In series [2] the test system is βGLU. Format: biochemical.
The test system of the next series is newborns. The settings on record: cited from earlier work.
A further series has as its system male Wister rats. The settings on record: cited from earlier work; for tumour size: from 2 cm.
Series [3] has as its system bacterial βGLU. The settings on record: cited from earlier work.
Series [4] has as its system whole human gut bacterial βGLU (eight bacterial isolates). The settings on record: cited from earlier work.
The test system of series [5] is E. coli βGLU. The settings on record: cited from earlier work.
The next series deals with rat liver βGLU. The settings on record: cited from earlier work.
A further series relates to male ICR mice. The settings on record: cited from earlier work.
The next series relates to male Wistar rats. The settings on record: cited from earlier work.
A further series deals with bovine liver βGLU. The settings on record: cited from earlier work.
Series [6] deals with E. coli βGLU. Description: E. coli βGLU inhibition. In kind it is biochemical.
For a further series, the system named is 3T3 cells. The settings on record: cited from earlier work.
In series [7] the test system is bacterial βGLU. In kind it is biochemical.
The test system of another series is BALB/cJ mice. The settings on record: 10 μg twice daily with 50 mg/kg CPT-11 once daily; cited from earlier work.
The conditions of series [8]: cited from earlier work.
The next series concerns Wistar rats. The settings on record: 0.8 μg inhibitor, 3 mg/kg diclofenac; cited from earlier work.
Another series has as its system neutrophil-derived βGLU. The settings on record: 1 μM; cited from earlier work.
[9] abbreviates: […] test concentration, US 7,294,330 B2.

The IC50 is the concentration that inhibits the measured activity by half. Regarding `O=C(Cn1c(-c2ccccn2)nc2ccccc21)c1ccc(F)cc1` [Compound 4-F], in the series with βGLU [1], the IC50 was 26.3 µM. Turning to `CC(=O)O[C@@H]1C(=O)O[C@H]2[C@@H]1OC(=O)[C@@H]2OC(C)=O` [Compound 6, 2,5-di-O-acetyl-D-glucaro-1,4:6,3-dilactone], the entries for the “reduction of aberrant crypt foci formation” value in the series on male Fischer rats (0.5% in diet) and in the series with male Fischer rats (2% in diet) were “over 48.6%” and above 55.3%, respectively. The “inhibition of colon carcinogenesis” value with male Fischer rats (post-initiation phase, 32 weeks treatment (D-GL: 2%)) is on record as “over 70%”.

Consider `COC(=O)[C@]1(Cc2ccc(O)c(C=O)c2)OC(=O)C(O)=C1c1ccc(O)cc1` [Compound 8], for which, in the series with βGLU [2], the “fold stronger potency than prenylated isomer (9)” value is given as 16 fold and the “fold superior potency compared to D-SAL” value is 8 fold.

Turning to `N[C@@H](CC(=O)O)C(=O)O` [Compound 10, L-aspartic acid], in the series with βGLU [2], the “fold more potent than D-isomer” value worked out at 100 fold. For the same compound, the “inhibition of βGLU” value with βGLU [1] (100 μM) is around 86%. Moreover, the “transcutaneous bilirubin levels, lower than control” value in the series with newborns (6 doses, 180 mg/5 ml of water/day, first week of life) is 25%. Besides, the adverse effects entry with newborns is given as “no adverse effects”. Take `O=c1cc(-c2ccc(O)c(O)c2)oc2cc(O)cc(O)c12` [Compound 11, Luteolin]: the “bacterial βGLU activity” value in the series with male Wister rats (0.1, 0.2 or 0.3 mg/kg body weight/day p.o., 30 weeks, vs DMH-controls) is reported as “significantly reduced”. For the same compound, in the series with male Wister rats, the “reduction in tumour incidence” value is on record as “up to 90%”. The tumour size with male Wister rats (initiation stage) is 0.25 cm; in the series with male Wister rats (post-initiation stage), 0.50 cm. On to `O=c1c(O)c(-c2ccc(O)cc2)oc2cc(O)cc(O)c12` [Compound 19, Kaempferol], for which, in the series on bacterial βGLU [3], the IC50 is 36.5 µM. The inhibition is the drop in the measured response relative to a control, in per cent. For the compound `CC(C)=CC[C@]12Oc3cc(O)c([C@H]4C=C(C)C[C@H](c5ccc(O)cc5O)[C@H]4C(=O)c4ccc(O)cc4O)c(O)c3C(=O)[C@@]1(O)Oc1cc(O)ccc12` [Compound 20, Sanggenon C], in series [4], the IC50 is 12.5 µM and the inhibition was above 70%. On to `CC(C)=CCc1c(-c2ccc(O)cc2O)oc2c([C@H]3C=C(C)C[C@@H](c4ccc(O)cc4O)[C@@H]3C(=O)c3ccc(O)cc3O)c(O)cc(O)c2c1=O` [Compound 21, Kuwanon G], for which, in [4], the IC50 is 7.4 µM and the inhibition is above 70%. `C=CCc1ccc(O)c(OC)c1` [Compound 39, eugenol]: in the series with βGLU [1], the IC50 was 616.68 µg/mL. Consider `O=c1c2cc(O)c(O)cc2oc2cc(O)c([C@@H]3O[C@H](CO)[C@@H](O)[C@H](O)[C@H]3O)c(O)c12` [Compound 40, mangiferin], for which the IC50 in the series on βGLU [1] is 38 µM.

As to `O=c1c(-c2ccc(O)cc2)coc2cc(O)ccc12` [Compound 41, daidzein], the results for the IC50 with E. coli βGLU [5] and with rat liver βGLU were 0.41 mg/mL and 0.50 mg/mL, respectively. For `COc1c(O[C@@H]2O[C@H](CO)[C@@H](O)[C@H](O)[C@H]2O)cc2occ(-c3ccc(O)cc3)c(=O)c2c1O` [Compound 43, tectoridin], the hepatoprotection entry in the series on male ICR mice (100 mg/kg intraperitoneal) is reported as “failure to provide desired hepatoprotection”. For the same compound, in the series with male ICR mice (100 mg/kg oral), the “serum AST, ALT and LDH levels relative to CCl4-treated controls” value is “significantly lowering”. The presence in serum result with male ICR mice (250 mg/kg oral, only tectorigenin detected) was “absence in the serum”. Consider `CC1(C)[C@@H](O)CC[C@]2(C)[C@H]3C(=O)C=C4[C@@H]5C[C@@](C)(C(=O)O)CC[C@]5(C)CC[C@@]4(C)[C@]3(C)CC[C@@H]12` [Compound 44, 18β-glycyrrhetinic acid], for which the IC50 in the series on E. coli βGLU [5] was 510 µM; with rat liver βGLU, 42.5 µM. Also, the “AST, ALT and LDH levels compared to CCl4-controls” value in the series on male Wistar rats (100 mg/kg intraperitoneal) is “significant reduction”.

As for `CC1(C)[C@@H](O[C@H]2O[C@H](C(=O)O)[C@@H](O)[C@H](O)[C@H]2O[C@@H]2O[C@H](C(=O)O)[C@@H](O)[C@H](O)[C@H]2O)CC[C@]2(C)[C@H]3C(=O)C=C4[C@@H]5C[C@@](C)(C(=O)O)CC[C@]5(C)CC[C@@]4(C)[C@]3(C)CC[C@@H]12` [Compound 45, glycyrrhizinic acid], the “AST, ALT and LDH levels compared to CCl4-controls” value in the series on male Wistar rats (100 mg/kg oral) is recorded as “significant reduction”. Besides, the hepatoprotection result with male Wistar rats (intraperitoneal administration) was “did not provide hepatoprotection”. Take `C[C@]12C=C/C(=N\O)C=C1CC[C@H]1[C@@H]3[C@@H](O)C[C@](C)(O)[C@@]3(C)CC[C@@H]12` [Compound 49]: in the series on βGLU [2], the “fold superior than Z-isomer” value was found to be 2 fold. As for `NC[C@@H]1C[C@@H]2[C@H](O)[C@@H](O)[C@H](O)[C@@H](C(=O)O)N2C(=O)O1` [Compound 71], the IC50 in the series with bovine liver βGLU is 218 µM. For the compound `NC[C@@H]1OC(=O)N2[C@H]1[C@H](O)[C@@H](O)[C@H](O)[C@H]2C(=O)O` [Compound 73], the IC50 in the series on bovine liver βGLU is 259 µM. As for `COc1ccc(C[C@@H]2CCC[C@@H]3[C@H](O)[C@@H](O)[C@H](CO)N23)cc1` [Compound 74], the inhibition in the series with E. coli βGLU [5] (1 mM) is below 50%.

Take `CCCCCCO[C@H]1C[C@](Cl)(CO)[C@@H](O)[C@H](O)[C@H]1NC(C)=O` [Compound 75]: in the series with E. coli βGLU [5], the IC50 is 170 µM. The Ki is the equilibrium dissociation constant of an inhibitor or competing ligand from its target. As for `O=C(O)[C@@H]1[C@@H](O)[C@H](O)[C@@]2(O)CC[C@@H]1N2` [Compound 77, uronic-noeurostegine], in the series with E. coli βGLU [6], the “selectivity for E. coli βGLU over bovine liver βGLU” value is recorded as 38 fold. Moreover, in the series with E. coli βGLU [5], the Ki was 60 nM.

In the case of `CCCC[C@H]1NC[C@@H](O)[C@@H](O)[C@H](O)[C@H]1O` [Compound 85], the IC50 in the series with E. coli βGLU [5] was 261 µM. On to `O=C(O)[C@H]1NC[C@H](O)[C@@H](O)[C@@H]1O` [Compound 94], for which the “selectivity for bovine liver βGLU” value with bovine liver βGLU is on record as 3 fold.

Regarding `Oc1ccccc1-c1nc2cc(Cl)cc(Cl)c2[nH]1` [Compound 111], the “fold potency vs D-SAL” value in the series with βGLU [2] is reported as 11 fold. On to `O=C(Cn1c(-c2ccccn2)nc2ccccc21)c1ccccc1[N+](=O)[O-]` [Compound 112], for which the IC50 in the series on βGLU [1] is 4.06 µM. As to `COc1ccccc1-c1nnc(-c2ccc(C(=O)NNS(=O)(=O)c3cc(Cl)c(Cl)cc3Cl)cc2)o1` [Compound 116], the IC50 with βGLU [1] is 1.4 µM. `O=C(N/N=C/c1c(O)cc(O)cc1O)c1cc2cc(Cl)ccc2[nH]1` [Compound 128]: the “fold stronger than corresponding oxadiazole variant of compound 115 library” value in the series with βGLU [2] turned out to be 3 fold. In the case of `O=C(N/N=C/c1ccccc1F)c1cc2cc(Cl)ccc2[nH]1` [Compound 129], the “fold stronger than corresponding oxadiazole variant of compound 115 library” value in the series with βGLU [2] turned out to be 43 fold. Regarding `Oc1cccc(C(c2c[nH]c3cc(Br)ccc23)c2c[nH]c3ccc(Br)cc23)c1O` (centres unmarked) [Compound 133], the cytotoxicity result in the series with 3T3 cells was “moderate cytotoxicity”. Take `O=C(/C=C/c1ccc(O)cc1)O[C@@H]1O[C@H](Oc2cc(O)c3c(=O)cc(-c4ccc(O)cc4)oc3c2)[C@@H](O)[C@H](O)[C@H]1O` [Compound 148]: the “fold potency vs D-SAL” value in the series on bacterial βGLU [7] amounted to 10 fold. For the same compound, the cytotoxicity entry with 3T3 cells is reported as “totally non-cytotoxic”. The term half-life denotes the time needed for the level to fall by half in the phase considered. With `CCOc1ccc(NC(=S)N(CCO)Cc2cc3cc(C)cc(C)c3[nH]c2=O)cc1` [Compound 151], the CPT-11 induced diarrhoea result with BALB/cJ mice is “alleviated Irinotecan (CPT-11) induced diarrhoea”. Besides, the half-life in [8] is given as below 1 h.

`COc1ccc(NC(=S)N(CCO)Cc2cc3cc(C)cc(C)c3[nH]c2=O)cc1` [Compound 152]: the “fold increased potency vs glucaro-δ-lactam 61” value in the series on E. coli βGLU [5] is recorded as 100 fold. Further, the “fold reduction in severity of diclofenac-induced anastomotic leakage” value with Wistar rats was 2 fold. Consider `COc1ccc(-c2nc(O)c3ccccc3n2)cc1OC` [Compound 160], for which the “fold potency vs D-SAL” value in the series on E. coli βGLU [6] amounted to 76 fold. In the case of `O=C1CCCCCC/C=C/CCCCCCC1` [Compound 191], the “inhibition of E. coli βGLU” value with E. coli βGLU [5] (0.001 wt%) is listed as 95.8%; in the series with E. coli βGLU [5] (0.1 wt% in dipropylene glycol), 100%. `O=S(=O)(NCc1cccc(Cl)c1)c1cc(Cl)c(Oc2cccc(N3CCNCC3)c2)s1` [Compound 193]: the IC50 result in the series on bacterial βGLU [3] (US 9617.239 B2) was “equipotent”; in the series with bacterial βGLU [3] (US 9617.239 B2, listed as C00012), 0.02 µM. On to `O=c1c(-c2ccc(O)cc2)coc2cc(O[C@@H]3O[C@H](CO)[C@@H](O)[C@H](O)[C@H]3O)ccc12` [daidzin], for which the IC50 result in the series with E. coli βGLU [5] and in the series with rat liver βGLU was “inactive” in each case. As to `C[C@]12C=CC(=O)C=C1CC[C@@H]1[C@@H]2CC[C@@]2(C)[C@H]1CC[C@]2(C)O` [dianabol, reference compound], the IC50 entry in the series with βGLU [1] is “inactive”. As for `O=c1c(-c2ccc(O)cc2)coc2c([C@@H]3O[C@H](CO)[C@@H](O)[C@H](O)[C@H]3O)c(O)ccc12` [puerarin], the IC50 entry in the series with E. coli βGLU [5] and with rat liver βGLU was “inactive” each time. For `O=C(O)c1ccccc1O` [salicylic acid, reference compound], the inhibition is recorded as 24.77% in the series on βGLU [1] (1 mM) and 25% in the series on neutrophil-derived βGLU. For the compound `O=C([O-])[C@H](O)[C@@H](O)[C@H](O)[C@H](O)CO.O=C([O-])[C@H](O)[C@@H](O)[C@H](O)[C@H](O)CO.[Zn+2]` [zinc gluconate], in the series with E. coli βGLU [5] (setting [9]), the “inhibition of E. coli βGLU” value is on record as 97%. `NCC(=O)[O-].NCC(=O)[O-].[Zn+2]` [zinc glycinate]: the “inhibition of E. coli βGLU” value in the series with E. coli βGLU [5] (setting [9]) is recorded as 99%. In the case of tectorigenin [Compound 42], the half-maximal inhibitory concentration (IC50) in the series with βGLU [1] was 300 µg/mL. In the series with male ICR mice (50 mg/kg intraperitoneal pre-treatment), the “serum AST, ALT and LDH levels relative to CCl4-treated controls” value is reported as “significantly lowering”.
